According to US11807835B2, “Detergent compositions containing a stabilized enzyme by phosphonates” (ECOLAB USA INC., priority 2016, dated 2023):

Legend:
Type in all cases: biochemical
[1] = test system: protease; assay: Protease activity retention in detergent use solution (4000 ppm, 5 GPG water; peptidyl substrate, glycine buffer pH 9.0); details: for Relative Protease Enzyme Activity: use solution at 120° F.
Outline: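 Detergent use solutions at 4000 ppm in 5 GPG water were held at 120° F with stirring and sampled up to 4 h, with aliquots flash-frozen. Activity was read on a peptidyl substrate in glycine buffer pH 9.0 by absorbance against a calibration curve. Retention is % activity relative to the t=0 sample.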

[2] = test system: amylase; assay: Amylase activity retention in detergent use solution (4000 ppm, 5 GPG water; ethylidene substrate EPS, HEPES buffer pH 8.0)
Outline: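 Detergent use solution at 4000 ppm in 5 GPG water held at 120° F.; aliquots taken up to 4 h, flash-frozen, then assayed with p-nitrophenyl valerate in TRIS pH 8.0 (lipase) or EPS substrate in HEPES pH 8.0 (amylase). Retention given as % activity relative to t=0.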

[3] = test system: enzyme (protease, amylase, lipase); assay: Overall effects of phosphonates on enzyme activity (Table 3); details: overall effect of the phosphonate on enzyme activity in the detergent use solution
Outline: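 Protease, amylase and lipase activity in detergent use solutions with varied phosphonate levels, 4000 ppm in 5 GPG water at 120° F., sampled up to 4 h and frozen at −80° C. before assay. Activity given as % retention relative to t=0 (100%).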

O=P(O)(O)CN(CP(=O)(O)O)CP(=O)(O)O [ATMP, Aminotri (methylene phosphonic acid)]
Relative Protease Enzyme Activity ([1]; All Ash formula, phosphonate 0.3 wt-%, time 0 min): 100.00%
Relative Protease Enzyme Activity ([1]; All Ash formula, phosphonate 0.3 wt-%, time 5 min): 84.60%
Relative Protease Enzyme Activity ([1]; All Ash formula, phosphonate 0.3 wt-%, time 10 min): 75.67%
Relative Protease Enzyme Activity ([1]; All Ash formula, phosphonate 0.3 wt-%, time 20 min): 53.32%
Relative Protease Enzyme Activity ([1]; All Ash formula, phosphonate 0.3 wt-%, time 40 min): 33.78%
Relative Protease Enzyme Activity ([1]; All Ash formula, phosphonate 0.3 wt-%, time 60 min): 22.22%
Relative Protease Enzyme Activity ([1]; All Ash formula, phosphonate 0.3 wt-%, time 90 min): 15.40%
Relative Protease Enzyme Activity ([1]; All Ash formula, phosphonate 0.3 wt-%, time 120 min): 11.13%
Relative Protease Enzyme Activity ([1]; All Ash formula, phosphonate 0.3 wt-%, time 150 min): 9.39%
Relative Protease Enzyme Activity ([1]; All Ash formula, phosphonate 0.3 wt-%, time 180 min): 7.41%
Relative Protease Enzyme Activity ([1]; All Ash formula, phosphonate 0.3 wt-%, time 210 min): 6.17%
Relative Protease Enzyme Activity ([1]; All Ash formula, phosphonate 0.3 wt-%, time 240 min): 5.58%
protease stability in all ash formula ([1]; all ash formula, versus same composition with PBTC or HEDP without amine(s), FIG. 2D): more stable
Relative Protease Enzyme Activity ([1]; base formula, phosphonate 0.3 wt-%, time 0 min): 100.00%
Relative Protease Enzyme Activity ([1]; base formula, phosphonate 0.3 wt-%, time 5 min): 94.95%
Relative Protease Enzyme Activity ([1]; base formula, phosphonate 0.3 wt-%, time 10 min): 94.68%
Relative Protease Enzyme Activity ([1]; base formula, phosphonate 0.3 wt-%, time 20 min): 89.76%
Relative Protease Enzyme Activity ([1]; base formula, phosphonate 0.3 wt-%, time 40 min): 87.06%
Relative Protease Enzyme Activity ([1]; base formula, phosphonate 0.3 wt-%, time 60 min): 83.93%
Relative Protease Enzyme Activity ([1]; base formula, phosphonate 0.3 wt-%, time 90 min): 80.79%
Relative Protease Enzyme Activity ([1]; base formula, phosphonate 0.3 wt-%, time 120 min): 76.31%
Relative Protease Enzyme Activity ([1]; base formula, phosphonate 0.3 wt-%, time 150 min): 73.96%
Relative Protease Enzyme Activity ([1]; base formula, phosphonate 0.3 wt-%, time 180 min): 70.37%
Relative Protease Enzyme Activity ([1]; base formula, phosphonate 0.3 wt-%, time 210 min): 65.72%
Relative Protease Enzyme Activity ([1]; base formula, phosphonate 0.3 wt-%, time 240 min): 63.75%
Relative Protease Enzyme Activity ([1]; base formula, phosphonate 0.6 wt-%, time 0 min): 100.00%
Relative Protease Enzyme Activity ([1]; base formula, phosphonate 0.6 wt-%, time 5 min): 91.70%
Relative Protease Enzyme Activity ([1]; base formula, phosphonate 0.6 wt-%, time 10 min): 102.58%
Relative Protease Enzyme Activity ([1]; base formula, phosphonate 0.6 wt-%, time 20 min): 100.03%
Relative Protease Enzyme Activity ([1]; base formula, phosphonate 0.6 wt-%, time 40 min): 97.16%
Relative Protease Enzyme Activity ([1]; base formula, phosphonate 0.6 wt-%, time 60 min): 92.31%
Relative Protease Enzyme Activity ([1]; base formula, phosphonate 0.6 wt-%, time 90 min): 89.99%
Relative Protease Enzyme Activity ([1]; base formula, phosphonate 0.6 wt-%, time 120 min): 91.60%
Relative Protease Enzyme Activity ([1]; base formula, phosphonate 0.6 wt-%, time 150 min): 86.21%
Relative Protease Enzyme Activity ([1]; base formula, phosphonate 0.6 wt-%, time 180 min): 89.08%
Relative Protease Enzyme Activity ([1]; base formula, phosphonate 0.6 wt-%, time 210 min): 89.86%
Relative Protease Enzyme Activity ([1]; base formula, phosphonate 0.6 wt-%, time 240 min): 82.33%
Relative Protease Enzyme Activity ([1]; base formula, phosphonate at 0.1% elemental phosphorus, time 0 min): 100.00%
Relative Protease Enzyme Activity ([1]; base formula, phosphonate at 0.1% elemental phosphorus, time 5 min): 122.55%
Relative Protease Enzyme Activity ([1]; base formula, phosphonate at 0.1% elemental phosphorus, time 10 min): 116.65%
Relative Protease Enzyme Activity ([1]; base formula, phosphonate at 0.1% elemental phosphorus, time 20 min): 115.14%
Relative Protease Enzyme Activity ([1]; base formula, phosphonate at 0.1% elemental phosphorus, time 40 min): 107.73%
Relative Protease Enzyme Activity ([1]; base formula, phosphonate at 0.1% elemental phosphorus, time 60 min): 102.70%
Relative Protease Enzyme Activity ([1]; base formula, phosphonate at 0.1% elemental phosphorus, time 90 min): 111.18%
Relative Protease Enzyme Activity ([1]; base formula, phosphonate at 0.1% elemental phosphorus, time 120 min): 106.19%
Relative Protease Enzyme Activity ([1]; base formula, phosphonate at 0.1% elemental phosphorus, time 150 min): 96.80%
Relative Protease Enzyme Activity ([1]; base formula, phosphonate at 0.1% elemental phosphorus, time 180 min): 93.35%
Relative Protease Enzyme Activity ([1]; base formula, phosphonate at 0.1% elemental phosphorus, time 210 min): 90.51%
Relative Protease Enzyme Activity ([1]; base formula, phosphonate at 0.1% elemental phosphorus, time 240 min): 88.60%
Relative Amylase Enzyme Activity ([2]; All Ash formula, phosphonate 0.3 wt-%, use solution at 120° F., time 0 min): 98.49%
Relative Amylase Enzyme Activity ([2]; All Ash formula, phosphonate 0.3 wt-%, use solution at 120° F., time 5 min): 100.00%
Relative Amylase Enzyme Activity ([2]; All Ash formula, phosphonate 0.3 wt-%, use solution at 120° F., time 10 min): 98.40%
Relative Amylase Enzyme Activity ([2]; All Ash formula, phosphonate 0.3 wt-%, use solution at 120° F., time 20 min): 97.90%
Relative Amylase Enzyme Activity ([2]; All Ash formula, phosphonate 0.3 wt-%, use solution at 120° F., time 40 min): 91.03%
Relative Amylase Enzyme Activity ([2]; All Ash formula, phosphonate 0.3 wt-%, use solution at 120° F., time 60 min): 86.91%
Relative Amylase Enzyme Activity ([2]; All Ash formula, phosphonate 0.3 wt-%, use solution at 120° F., time 90 min): 87.68%
Relative Amylase Enzyme Activity ([2]; All Ash formula, phosphonate 0.3 wt-%, use solution at 120° F., time 120 min): 80.93%
Relative Amylase Enzyme Activity ([2]; All Ash formula, phosphonate 0.3 wt-%, use solution at 120° F., time 150 min): 83.80%
Relative Amylase Enzyme Activity ([2]; All Ash formula, phosphonate 0.3 wt-%, use solution at 120° F., time 180 min): 80.91%
Relative Amylase Enzyme Activity ([2]; All Ash formula, phosphonate 0.3 wt-%, use solution at 120° F., time 210 min): 84.34%
Relative Amylase Enzyme Activity ([2]; All Ash formula, phosphonate 0.3 wt-%, use solution at 120° F., time 240 min): 83.21%
amylase stability in all ash formula ([2]; all ash formula, versus same composition with PBTC or HEDP without amine(s), FIG. 4D): more stable
Relative Amylase Enzyme Activity ([2]; base formula, phosphonate 0.3 wt-%, use solution at 120° F., time 0 min): 100.00%
Relative Amylase Enzyme Activity ([2]; base formula, phosphonate 0.3 wt-%, use solution at 120° F., time 5 min): 89.47%
Relative Amylase Enzyme Activity ([2]; base formula, phosphonate 0.3 wt-%, use solution at 120° F., time 10 min): 82.94%
Relative Amylase Enzyme Activity ([2]; base formula, phosphonate 0.3 wt-%, use solution at 120° F., time 20 min): 79.67%
Relative Amylase Enzyme Activity ([2]; base formula, phosphonate 0.3 wt-%, use solution at 120° F., time 40 min): 90.79%
Relative Amylase Enzyme Activity ([2]; base formula, phosphonate 0.3 wt-%, use solution at 120° F., time 60 min): 89.94%
Relative Amylase Enzyme Activity ([2]; base formula, phosphonate 0.3 wt-%, use solution at 120° F., time 90 min): 94.47%
Relative Amylase Enzyme Activity ([2]; base formula, phosphonate 0.3 wt-%, use solution at 120° F., time 120 min): 95.08%
Relative Amylase Enzyme Activity ([2]; base formula, phosphonate 0.3 wt-%, use solution at 120° F., time 150 min): 94.00%
Relative Amylase Enzyme Activity ([2]; base formula, phosphonate 0.3 wt-%, use solution at 120° F., time 180 min): 90.87%
Relative Amylase Enzyme Activity ([2]; base formula, phosphonate 0.3 wt-%, use solution at 120° F., time 210 min): 94.61%
Relative Amylase Enzyme Activity ([2]; base formula, phosphonate 0.3 wt-%, use solution at 120° F., time 240 min): 96.54%
Relative Amylase Enzyme Activity ([2]; base formula, phosphonate 0.6 wt-%, use solution at 120º F., time 0 min): 100.00%
Relative Amylase Enzyme Activity ([2]; base formula, phosphonate 0.6 wt-%, use solution at 120º F., time 5 min): 87.10%
Relative Amylase Enzyme Activity ([2]; base formula, phosphonate 0.6 wt-%, use solution at 120º F., time 10 min): 92.19%
Relative Amylase Enzyme Activity ([2]; base formula, phosphonate 0.6 wt-%, use solution at 120º F., time 20 min): 80.12%
Relative Amylase Enzyme Activity ([2]; base formula, phosphonate 0.6 wt-%, use solution at 120º F., time 40 min): 77.64%
Relative Amylase Enzyme Activity ([2]; base formula, phosphonate 0.6 wt-%, use solution at 120º F., time 60 min): 91.13%
Relative Amylase Enzyme Activity ([2]; base formula, phosphonate 0.6 wt-%, use solution at 120º F., time 90 min): 92.19%
Relative Amylase Enzyme Activity ([2]; base formula, phosphonate 0.6 wt-%, use solution at 120º F., time 120 min): 93.02%
Relative Amylase Enzyme Activity ([2]; base formula, phosphonate 0.6 wt-%, use solution at 120º F., time 150 min): 101.54%
Relative Amylase Enzyme Activity ([2]; base formula, phosphonate 0.6 wt-%, use solution at 120º F., time 180 min): 80.83%
Relative Amylase Enzyme Activity ([2]; base formula, phosphonate 0.6 wt-%, use solution at 120º F., time 210 min): 92.78%
Relative Amylase Enzyme Activity ([2]; base formula, phosphonate 0.6 wt-%, use solution at 120º F., time 240 min): 86.75%
Relative Amylase Enzyme Activity ([2]; base formula, phosphonate at 0.1% elemental phosphorus level, use solution at 120º F., time 0 min): 82.19%
Relative Amylase Enzyme Activity ([2]; base formula, phosphonate at 0.1% elemental phosphorus level, use solution at 120º F., time 5 min): 100.00%
Relative Amylase Enzyme Activity ([2]; base formula, phosphonate at 0.1% elemental phosphorus level, use solution at 120º F., time 10 min): 107.32%
Relative Amylase Enzyme Activity ([2]; base formula, phosphonate at 0.1% elemental phosphorus level, use solution at 120º F., time 20 min): 106.35%
Relative Amylase Enzyme Activity ([2]; base formula, phosphonate at 0.1% elemental phosphorus level, use solution at 120º F., time 40 min): 100.35%
Relative Amylase Enzyme Activity ([2]; base formula, phosphonate at 0.1% elemental phosphorus level, use solution at 120º F., time 60 min): 106.09%
Relative Amylase Enzyme Activity ([2]; base formula, phosphonate at 0.1% elemental phosphorus level, use solution at 120º F., time 90 min): 101.79%
Relative Amylase Enzyme Activity ([2]; base formula, phosphonate at 0.1% elemental phosphorus level, use solution at 120º F., time 120 min): 104.38%
Relative Amylase Enzyme Activity ([2]; base formula, phosphonate at 0.1% elemental phosphorus level, use solution at 120º F., time 150 min): 101.75%
Relative Amylase Enzyme Activity ([2]; base formula, phosphonate at 0.1% elemental phosphorus level, use solution at 120º F., time 180 min): 103.89%
Relative Amylase Enzyme Activity ([2]; base formula, phosphonate at 0.1% elemental phosphorus level, use solution at 120º F., time 210 min): 100.38%
Relative Amylase Enzyme Activity ([2]; base formula, phosphonate at 0.1% elemental phosphorus level, use solution at 120º F., time 240 min): 107.10%
Stability (effects on enzyme activity) [3]: Yes
